Data published in ChEMBL document CHEMBL5506005, “Biochemical and structural characterization of chlorhexidine as an ATP-assisted inhibitor against type 1 methionyl-tRNA synthetase from Gram-positive bacteria” (Eur J Med Chem, 2024).

Assays:
[1] = target: Methionine--tRNA ligase (Staphylococcus aureus (strain Mu50 / ATCC 700699)) (UniProt P67578); assay: Inhibition of Staphylococcus aureus MetRS expressed in Escherichia coli BL21(DE3) cells at 100 uM measured after 2.5 hrs in presence of ATP by pre-transfer editing assay relative to control
[2] = target: Methionine--tRNA ligase (Staphylococcus aureus (strain Mu50 / ATCC 700699)) (UniProt P67578); assay: Binding affinity to Staphylococcus aureus MetRS expressed in Escherichia coli BL21(DE3) cells assessed as change in melting temperature at 100 uM incubated for 10 mins followed by heat treatment by SYPRO orange dye based TSA (reference value: 53.7 degreeC)
[3] = target: Methionine--tRNA ligase (Staphylococcus aureus (strain Mu50 / ATCC 700699)) (UniProt P67578); assay: Binding affinity to Staphylococcus aureus MetRS expressed in Escherichia coli BL21(DE3) cells assessed as change in melting temperature at 100 uM incubated for 10 mins followed by heat treatment in presence of 2 mM ATP by SYPRO orange dye based TSA (reference value: 56.4 degreeC)

inhibition [1] | ΔTm [2] | ΔTm [3] | Structure (SMILES)
< 20% | -0.1 °C | 1.1 °C | CCN(CC)CCCC(C)Nc1ccnc2cc(Cl)ccc12 (stereo unspecified)
32.7% | 0.5 °C | 2.1 °C | COc1cc(Nc2c(C#N)cnc3cc(OCCCN4CCN(C)CC4)c(OC)cc23)c(Cl)cc1Cl
